Assay results published in patent publication US11214554B2, “Indoleamine 2,3-dioxygenase inhibitor, method for preparation and use thereof” (NANJING HUAWE MEDICINE TECHNOLOGY GROUP CO., LTD., priority 2018, dated 2022).
Like-named read-outs stand apart in the source and are kept apart here. Blank lines part the entries; values can stand above or below the molecule they belong to.

Assays:
IDO1 enzyme = IDO1 enzyme (Homo sapiens (Human), UniProt P14902); experiment: Determination of the IDO1 inhibitory activity of compounds (enzyme assay, absorbance at 480 nm); assay type: biochemical; conditions: 50 nM IDO1, 37° C., 30 minutes, pH 6.5, 1% DMSO; average of two tests
Description: 100 mM PBS containing 400 μM L-tryptophan, 20 mM ascorbate, 20 μM methylene blue and 1000 U/ml catalase, pH 6.5
All compounds were dissolved with DMSO. During the assay, each compound was diluted to a concentration as needed. The compound of each concentration was added to multi-wells, and the final concentration of DMSO was controlled at 1%.
a.) the reaction mixture was prepared by adding 50 nM IDO1 and the desired concentration of the test compound to 100 μL of IDO1 assay buffer. IDO1 and assay buffer need to be preheated to 37° C.
b.) The mixture was reacted in a constant temperature water tank at 37° C. for 30 minutes.
c.) 50 μL of 30% trichloroacetic acid was added.
d.) The above mixture was reacted in a constant temperature water tank at 52° C. for 30 minutes.
e.) The reaction mixture was centrifuged at 12000 g for 10 minutes at room temperature.
f.) 100 μL of the obtained supernatant and 100 μL of Ehrlich reagent were mixed.
g.) the absorbance at 480 nm was measured using an M5 microplate reader.
4. Data Analysis Inhibition rate=(ODpostive−ODsample)/(ODpositive−ODnegative)*100% 5. Results and Discussion
In this experiment, the inhibitory activity of the test compounds on the IDO1 enzyme was tested. Compounds of each diluted concentration were tested in multi-wells. The final concentration of the reaction system in DMSO was controlled to 1%. The inhibition rate was tested twice, and the average value was taken.

[1] = target: IDO protease in highly expressed HeLa cells (Homo sapiens (Human), UniProt P14902); experiment: Inhibitory activity of compounds on IDO protease in highly expressed HeLa cells; assay type: cell-based; conditions: highly expressed HeLa cell line
Description: This method was used to determine the inhibitory effect of the compounds of the invention on the inhibitory activity of IDO protease in highly expressed HeLa cells.
Highly expressed HeLa cell line
a.) 50 μL of 30% trichloroacetic acid was added.
b.) The mixture was reacted in a constant temperature water tank at 52° C. for 30 minutes.
c.) The above mixture was centrifuge at 12,000 g for 10 minutes at room temperature.
d.) 100 μL of the supernatant was mixed with 100 μL of Ehrlich reagent.
e.) the absorbance was measured at 480 nm using an M5 microplate reader.
The software Graphpad Prism 5 was used with the calculation formula of log(inhibitor) vs. normalized response to perform IC50 curve fitting and the IC50 value was calculated.

[2] = Pharmacokinetic evaluation in SD rats after oral administration by single gavage; assay type: in vivo; conditions: rat, PO 75 mg/kg, plasma; for half-life: read-out: t½ (converted)
Description: 1. Experimental animals: 100 (half male and half female) SPF grade SD rats were purchased from Shanghai Cypre-Bikai Experimental Animal Co., Ltd. Among them, 72 medically qualified and healthy SD rats without abnormality (half male and half female) were used for the study. 2. Animal Administration
72 SD rats (half male and half female) were tested according to the following table. The drug samples were stirred at least 10 minutes before administration.
Blood samples were obtained through the jugular vein puncture, and each sample was collected for about 0.25 mL and added with heparin sodium for anticoagulation. The blood sampling was performed at time points as follows:
for oral administration group, before administration, 0.25 h, 0.5 h, 1 h, 2 h, 4 h, 6 h, 8 h, 24 h after administration.
After collection, the blood samples were placed on ice and the plasma was separated by centrifugation (centrifugation conditions: 8000 rpm, 6 minutes, 2-8° C.). The collected plasma was stored at −80° C. before analysis. Plasma samples were analyzed by the analysis department of the experimental institution using LC-MS/MS for the content of the test compound in the rat plasma. The LLOQ of the detection substance was 1 ng/mL.
According to the blood plasma concentration data of the drugs, the pharmacokinetic calculation software WinNonlin5.2 non-compartmental model was used to calculate the pharmacokinetic parameters AUC0-t, Cmax, Tmax, T1/2 d and other parameters of the test samples and their average value and standard deviation.
When pharmacokinetic parameters were calculated for samples with lower concentration than the lower limit of quantification, samples taken before the curve reached Cmax should be calculated with zero value, and samples taken after the curve reached Cmax should be calculated with non-quantitative (BLQ).
The main pharmacokinetic parameters of compounds in SD rats plasma after oral administration by single gavage

Chain of IDO protease in highly expressed HeLa cells (P14902 whole entry): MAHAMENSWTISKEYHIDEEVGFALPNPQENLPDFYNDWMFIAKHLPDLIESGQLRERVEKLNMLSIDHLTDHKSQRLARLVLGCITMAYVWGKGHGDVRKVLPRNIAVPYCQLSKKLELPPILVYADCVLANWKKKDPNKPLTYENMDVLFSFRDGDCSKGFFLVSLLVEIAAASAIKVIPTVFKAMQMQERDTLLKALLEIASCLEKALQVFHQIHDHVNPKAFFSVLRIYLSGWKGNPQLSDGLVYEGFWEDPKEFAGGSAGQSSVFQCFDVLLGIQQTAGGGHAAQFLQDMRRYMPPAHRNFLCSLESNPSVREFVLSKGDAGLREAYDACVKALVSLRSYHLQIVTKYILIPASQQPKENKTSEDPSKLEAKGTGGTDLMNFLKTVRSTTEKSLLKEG
Chain of IDO1 enzyme (P14902 whole entry, species assumed): as the sequence (P14902 whole entry) above

Compound: O/N=C(\Nc1ccc(F)c(C(F)(F)F)c1)c1nonc1NOCCc1cccs1 [Compound I-7]
IC50 (IDO1 enzyme): 113 nM

Compound: CS(=O)(=O)NCCONc1nonc1/C(=N/O)Nc1ccc(F)c(F)c1 [Compound I-13]
IC50 (IDO1 enzyme): 124 nM

Compound: OCCONc1nonc1/C(=N/O)Nc1ccc(F)c(Br)c1 [Compound I-14]
IC50 (IDO1 enzyme): 81 nM

Compound: OCCCONc1nonc1/C(=N/O)Nc1ccc(F)c(Cl)c1 [Compound I-15]
IC50 (IDO1 enzyme): 93 nM

Compound: NS(=O)(=O)NC1(CONc2nonc2/C(=N/O)Nc2ccc(F)c(Br)c2)CC1 [Compound I-20]
IC50 [1]: 8 nM | IC50 (IDO1 enzyme): 18 nM | AUC(0-inf) ([2]; female SD rats): 1990 ng·h/mL | Cmax ([2]; female SD rats): 3330 ng/mL | Tmax ([2]; female SD rats): 0.5 h | half-life ([2]; female SD rats): 1.42 h | AUC(0-inf) ([2]; male SD rats): 2390 ng·h/mL | Cmax ([2]; male SD rats): 4240 ng/mL | Tmax ([2]; male SD rats): 1 h | half-life ([2]; male SD rats): 1.98 h

Compound: NS(=O)(=O)NC(CO)CONc1nonc1/C(=N/O)Nc1ccc(F)cc1 (stereo not drawn) [Compound I-23]
IC50 [1]: 38 nM | IC50 (IDO1 enzyme): 36 nM

Compound: NS(=O)(=O)NCCONc1nonc1/C(=N/O)NCc1ccccc1 [Compound I-25]
IC50 (IDO1 enzyme): 68 nM

Compound: CC(N/C(=N\O)c1nonc1NOCCNS(N)(=O)=O)c1ccccc1 (stereo not drawn) [Compound I-27]
IC50 [1]: 26 nM | IC50 (IDO1 enzyme): 42 nM

Compound: NS(=O)(=O)NC1CCC(ONc2nonc2/C(=N/O)Nc2ccc(F)c(F)c2)CC1 (stereo not drawn) [Compound I-31]
IC50 (IDO1 enzyme): 42 nM

Compound: O/N=C(\Nc1ccc(F)c(F)c1)c1nonc1NOC1CCC(O)CC1 (stereo not drawn) [Compound I-35]
IC50 (IDO1 enzyme): 94 nM

Compound: O/N=C(\Nc1ccc(F)c(F)c1)c1nonc1N1CCCCO1 [Compound I-38]
IC50 (IDO1 enzyme): 78 nM

Compound: NS(=O)(=O)NCCNc1nonc1C(=NO)Nc1ccc(F)c(Br)c1 [INCB024360, Epacadostat, reference compound]
AUC(0-inf) ([2]; female SD rats): 11300 ng·h/mL | Cmax ([2]; female SD rats): 3410 ng/mL | half-life ([2]; female SD rats): 2.51 h | AUC(0-inf) ([2]; male SD rats): 12200 ng·h/mL | Cmax ([2]; male SD rats): 3940 ng/mL | Tmax ([2]; male SD rats): 0.5 h | half-life ([2]; male SD rats): 2.24 h

Further lines, results first:

IC50 (IDO1 enzyme): 94 nM
Compound: Cc1ccc(CCONc2nonc2/C(=N/O)Nc2ccc(F)c(Br)c2)cc1 [Compound I-8]

IC50 (IDO1 enzyme): 85 nM
Compound: O=C(NCCONc1nonc1/C(=N/O)Nc1ccc(F)c(C(F)(F)F)c1)c1ccc(F)cc1 [Compound I-9]

IC50 (IDO1 enzyme): 90 nM
Compound: Nc1ncc(C(=O)NCCONc2nonc2/C(=N/O)Nc2ccc(F)c(Cl)c2)s1 [Compound I-10]

IC50 [1]: 35 nM | IC50 (IDO1 enzyme): 42 nM
Compound: NC(CCONc1nonc1/C(=N/O)Nc1ccc(F)c(Br)c1)C(=O)O (stereo not drawn) [Compound I-16]

IC50 (IDO1 enzyme): 183 nM
Compound: O=C(O)CCCONc1nonc1/C(=N/O)Nc1ccc(F)c(Br)c1 [Compound I-18]

IC50 (IDO1 enzyme): 64 nM
Compound: COC(=O)C(CCONc1nonc1/C(=N/O)Nc1ccc(F)c(F)c1)NS(N)(=O)=O (stereo not drawn) [Compound I-22]

IC50 [1]: 5 nM | IC50 (IDO1 enzyme): 8 nM | AUC(0-inf) ([2]; female SD rats): 18700 ng·h/mL | Cmax ([2]; female SD rats): 7240 ng/mL | Tmax ([2]; female SD rats): 1 h | half-life ([2]; female SD rats): 2.34 h | AUC(0-inf) ([2]; male SD rats): 20700 ng·h/mL | Cmax ([2]; male SD rats): 8760 ng/mL | Tmax ([2]; male SD rats): 1 h | half-life ([2]; male SD rats): 2.12 h
Compound: NS(=O)(=O)NCCONc1nonc1/C(=N/O)Nc1ccc(F)c(Br)c1 [Compound I-24]

IC50 (IDO1 enzyme): 92 nM
Compound: NS(=O)(=O)NCCCCONc1nonc1/C(=N/O)Nc1ccc(F)c(Br)c1 [Compound I-26]

IC50 (IDO1 enzyme): 142 nM
Compound: O/N=C(\Nc1ccc(F)c(F)c1)c1nonc1NOC1CCCCO1 (stereo not drawn) [Compound I-39]

AUC(0-inf) ([2]; female SD rats): 7540 ng·h/mL | Cmax ([2]; female SD rats): 4240 ng/mL | Tmax ([2]; female SD rats): 1 h | half-life ([2]; female SD rats): 1.45 h | AUC(0-inf) ([2]; male SD rats): 8250 ng·h/mL | Cmax ([2]; male SD rats): 4760 ng/mL | Tmax ([2]; male SD rats): 1 h | half-life ([2]; male SD rats): 1.67 h
Compound: O=C(NCCONc1nonc1/C(=N/O)Nc1ccc(F)c(Br)c1)Nc1cc(F)cc(F)c1 [Compound I-40]

IC50 [1]: 38 nM | IC50 (IDO1 enzyme): 35 nM
Compound: O/N=C(\Nc1ccc(F)c(Br)c1)c1nonc1NOCCONc1nonc1/C(=N/O)Nc1ccc(F)c(Br)c1 [Compound I-43]

IC50 (IDO1 enzyme): 78 nM
Compound: NS(=O)(=O)NOCCONc1nonc1/C(=N/O)Nc1ccc(F)c(Br)c1 [Compound I-44]

IC50 (IDO1 enzyme): 66 nM
Compound: O=C1NC(=O)C2(CCC(ONc3nonc3/C(=N/O)Nc3ccc(F)c(F)c3)CC2)N1 (stereo not drawn) [Compound I-49]

IC50 [1]: 21 nM | IC50 (IDO1 enzyme): 28 nM
Compound: O=C(CCC1CCC(ONc2nonc2/C(=N/O)Nc2ccc(F)c(F)c2)CC1)Nc1ccc(F)cc1 (stereo not drawn) [Compound I-50]

IC50 (IDO1 enzyme): 83 nM
Compound: COC(=O)CSNc1nonc1/C(=N/O)Nc1ccc(F)cc1 [Compound I-51]
